What was measured:
[1] = target: human CRFR1 (Homo sapiens (Human), UniProt P34998); assay: CRFR1 Binding Test; details: competition with 100 pM 125I-CRF, SPA method, membrane fraction of human CRFR1-expressing HEK293 cells; read-out: CRF1 receptor binding capacity IC50;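 also: nonspecific binding was determined with a 4,000-fold excess of unlabelled sauvagine and subtracted from every reading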
[2] = system: mice; assay: Light/dark box test in mice (anxiolytic effect); assay type: in vivo; details: for Effective Dose: dose significantly prolonging time spent in the light box vs vehicle, oral administration one hour prior to test, male Balb/c mice; for anxiolytic effect in the light/dark box test in mice: statistically significant at 30 mg/kg (oral administration)
Procedure: <Evaluation of Anxiolytic Effect in Light/Dark Box Test in Mice>
The light/dark box test in mice was carried out according to a modified method of Belzung C., Misslin R., and Vogel E. et al. (Reference; Behavioural effects of the benzodiazepine receptor partial agonist RO16-6028 in mice, Psychopharmacology, 97, 388-391, 1989). The test apparatus used in this test was a light/dark box including a covered black acrylic box (dark box; 15×10×20 cm), a white acrylic box with top opened (light box; 15×20×20 cm) and a black acrylic tunnel (10×7×4.5 cm) that connects the dark box and the light box and enables a mouse to freely move back and forth between the dark box and light box. In this test apparatus, however, a transparent acrylic plate was used for the front side (20×20 cm) and back side (20×20 cm) of the light box to allow observation of the behavior. After setting illumination so that the light intensity of the floor surface of the light box became 150 Lux, 5-week-old male Balb/c mice (purchased from Nihon Charles River) were introduced into the dark box and the test was started. In the test, the tested compound was suspended in 5% dimethyl sulfoxide, 5% Cremopor EL and 90% physiological saline and orally administered to the test animals one hour prior to the start of the test.
The time spent in the light box was measured as an index of the anxiolytic effect, with “spend in the light box” defined as the state in which all limbs of the mice were on the floor of the light box. […] The statistical significance between the vehicle-treated group and the test compound-treated groups was analyzed by one-way layout analysis of variance followed by Dunnett multiple comparison when multiple doses were set for the same test, and by the Mann-Whitney U test when only one dose was set.

[3] = in vivo; cited from earlier work
[4] = in vivo; cited from earlier work; remark: listed apart in the source
[5] = in vivo; cited from earlier work; remark: listed apart in the source
[6] = system: Tg2576 transgenic mice; details: cited from earlier work
[7] = convulsion and epilepsy induced by CRF administration; cited from earlier work

Chain of human CRFR1 (P34998 24-415): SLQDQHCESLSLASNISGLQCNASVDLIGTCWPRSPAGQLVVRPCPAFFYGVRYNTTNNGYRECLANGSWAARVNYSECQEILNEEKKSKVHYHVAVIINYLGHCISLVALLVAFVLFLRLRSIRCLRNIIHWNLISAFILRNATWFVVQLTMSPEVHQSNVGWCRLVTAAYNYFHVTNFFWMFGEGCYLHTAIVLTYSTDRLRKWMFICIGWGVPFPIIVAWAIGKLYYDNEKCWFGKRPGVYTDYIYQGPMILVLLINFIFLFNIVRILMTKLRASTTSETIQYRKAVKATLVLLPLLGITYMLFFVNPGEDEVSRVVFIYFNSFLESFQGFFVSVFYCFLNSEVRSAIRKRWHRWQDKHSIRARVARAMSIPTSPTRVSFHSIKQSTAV

| Compound | IC50 [1] [nM] | further results |
| --- | --- | --- |
| CCCN(c1c(OC)nn2c(-c3c(OC)cc(COC)cc3OC)csc12)C1CCOC1 (centres unmarked) [Example 14, 3-[2,6-Dimethoxy-4-methoxymethylphenyl]-6-methoxy-N-propyl-N-(tetrahydrofuran-3-yl)pyrazolo[5,1-b][1,3]thiazole-7-amine] | 51 | Effective Dose [2]: 30 mg/kg; anxiolytic effect in the light/dark box test in mice [2]: excellent anxiolytic effects |
| CCN(c1nc(C)cc(N2CC=C(c3cccc(F)c3)CC2)n1)c1ccc(C(C)C)cc1SC [CRA1000] |  | stress-related reduction in food intake [3]: inhibit stress-related reduction in food intake |
| CCCCN(CC)c1nc(C)nc2c1c(C)c(C)n2-c1c(C)cc(C)cc1C [antalarmin] |  | stress-induced hippocampal tau phosphorylation [4]: inhibits stress-induced hippocampal tau phosphorylation; hypertension induced by intraventricular administration of CRF [5]: inhibits hypertension induced by intraventricular administration of CRF |
| COCc1cc(OC)c(-c2csc3c(N(CC4CC4)CC4C5COCC54)c(OC)nn23)c(OC)c1 (single isomer, unassigned; diastereomer 1) [Example 94, N-(Cyclopropylmethyl)-3-[2,6-dimethoxy-4-(methoxymethyl)phenyl]-6-methoxy-N-[3-oxabicyclo[3.1.0]hex-6-ylmethyl]-pyrazolo[5,1-b][1,3]thiazole-7-amine (diastereomer 1)] | 45 | Effective Dose [2]: 30 mg/kg; anxiolytic effect in the light/dark box test in mice [2]: excellent anxiolytic effects |
| CCCN(c1c(OC)nn2c(-c3c(OC)cc(COCC)cc3OC)csc12)C1CCOC1 (centres unmarked) [Example 46, 3-[4-(Ethoxymethyl)-2,6-dimethoxyphenyl]-6-methoxy-N-propyl-N-(tetrahydrofuran-3-yl)pyrazolo[5,1-b][1,3]thiazole-7-amine] | 26 | Effective Dose [2]: 30 mg/kg; anxiolytic effect in the light/dark box test in mice [2]: excellent anxiolytic effects |
| COCc1cc(OC)c(-c2csc3c(N(CC4CCOCC4)CC4CC4)c(C)nn23)c(OC)c1 [Example 4, N-(Cyclopropylmethyl)-3-[2,6-dimethoxy-4-(methoxymethyl)phenyl]-6-methyl-N-(tetrahydro-2H-pyran-4-ylmethyl)pyrazolo[5,1-b][1,3]thiazole-7-amine] |  | Effective Dose [2]: 30 mg/kg; anxiolytic effect in the light/dark box test in mice [2]: excellent anxiolytic effects |
| COCc1cc(OC)c(-c2csc3c(N(CC4CC4)CC4COCOC4)c(OC)nn23)c(OC)c1 [Example 11, Cyclopropylmethyl-3[3-(2,6-dimethoxy-4-methoxymethyl-phenyl)-6-methoxy-pyrazolo[5,1-b][1,3]thiazol-7-yl]-[1,3]dioxan-5-ylmethyl-amine] | 92 | Effective Dose [2]: 30 mg/kg; anxiolytic effect in the light/dark box test in mice [2]: excellent anxiolytic effects |
| CCOCc1cc(OC)c(-c2csc3c(N(CCCOC)CC4CC4)c(OC)nn23)c(OC)c1 [Example 42, N-(Cyclopropylmethyl)-3-[4-(ethoxymethyl)-2,6-dimethoxyphenyl]-6-methoxy-N-(3-methoxypropyl)pyrazolo[5,1-b][1,3]thiazole-7-amine] | 35 | Effective Dose [2]: 30 mg/kg; anxiolytic effect in the light/dark box test in mice [2]: excellent anxiolytic effects |
| COCCN(c1c(OC)nn2c(-c3c(OC)cc(COC)cc3OC)csc12)C1CCCC1 [Example 53, N-Cyclopentyl-3-[2,6-dimethoxy-4-(methoxymethyl)phenyl]-6-methoxy-N-(2-methoxyethyl)pyrazolo[5,1-b][1,3]thiazole-7-amine] | 18 |  |
| CCCN(c1c(OCC)nn2c(-c3c(OC)cc(COC)cc3OC)csc12)C1CCOCC1 [Example 79, 3-[2,6-Dimethoxy-4-(methoxymethyl)phenyl]-6-ethoxy-N-propyl-N-(tetrahydro-2H-pyran-4-yl)pyrazolo[5,1-b][1,3]thiazole-7-amine] | 76 |  |
| CCN(c1c(OC)nn2c(-c3c(OC)cc(C4CC4)cc3OC)csc12)C1CCOCC1 [Example 64, 3-(4-Cyclopropyl-2,6-dimethoxyphenyl)-N-ethyl-6-methoxy-N-(tetrahydro-2H-pyran-4-yl)pyrazolo[5,1-b][1,3]thiazole-7-amine] | 61 |  |
| COc1cc(C2CC2)cc(OC)c1-c1csc2c(N(CC3CC3)CC3CCOC3)c(OC)nn12 (centres unmarked) [Example 60, 3-(4-Cyclopropyl-2,6-dimethoxyphenyl)-N-(cyclopropylmethyl)-6-methoxy-N-(tetrahydrofuran-3-ylmethyl)pyrazolo[5,1-b][1,3]thiazole-7-amine] | 33 |  |
| COCc1cc(OC)c(-c2csc3c(N(CC(C)C)CC4(OC)CC4)c(OC)nn23)c(OC)c1 [Example 76, 3-[2,6-Dimethoxy-4-(methoxymethyl)phenyl]-N-isobutyl-6-methoxy-N-[(1-methoxycyclopropyl)methyl]pyrazolo[5,1-b][1,3]thiazole-7-amine] | 37 |  |
| COCc1cc(OC)c(-c2csc3c(N(CC(C)C)C4CCOC4)c(OC)nn23)c(OC)c1 (centres unmarked) [Example 43, [3-(2,6-Dimethoxy-4-methoxymethylphenyl)-6-methoxy-pyrazolo[5,1-b][1,3]thiazol-7-yl]-isobutyl-(tetrahydrofuran-3-yl)-amine] | 45 |  |
| COCc1cc(OC)c(-c2csc3c(N(CC4CC4)c4cccnc4)c(OC)nn23)c(OC)c1 [Example 89, N-(Cyclopropylmethyl)-3-[2,6-dimethoxy-4-(methoxymethyl)phenyl]-6-methoxy-N-pyridin-3-ylpyrazolo[5,1-b][1,3]thiazole-7-amine] | 52 |  |
| CCCCN(CCOC)c1c(OC)nn2c(-c3c(OC)cc(COCC)cc3OC)csc12 [Example 41, N-Butyl-3-[4-(ethoxymethyl)-2,6-dimethoxyphenyl]-6-methoxy-N-(2-methoxyethyl)pyrazolo[5,1-b][1,3]thiazole-7-amine] | 25 |  |
| CCCN(CC1CCOC1)c1c(OC)nn2c(-c3cnc(N(C)C)cc3OC)csc12 (centres unmarked) [Example 16, [3-(6-Dimethylamino-4-methoxy-pyridin-3-yl)-6-methoxy-pyrazolo[5,1-b][1,3]thiazol-7-yl]-propyl-(tetrahydro-furan-3-ylmethyl)-amine] | 132 |  |
| CCCN(c1c(OC)nn2c(-c3c(OC)cc(COC)cc3OC)csc12)C1CCCOCC1 (centres unmarked) [Example 34, 3-[2,6-Dimethoxy-4-(methoxymethyl)phenyl]-6-methoxy-N-oxepan-4-yl-N-propylpyrazolo[5,1-b][1,3]thiazole-7-amine] | 130 |  |
| CCCN(CC1CCOC1)c1c(OCC)nn2c(-c3c(OC)cc(COC)cc3OC)csc12 (centres unmarked) [Example 84, 3-[2,6-Dimethoxy-4-(methoxymethyl)phenyl]-6-ethoxy-N-propyl-N-(tetrahydrofuran-3-ylmethyl)pyrazolo[5,1-b][1,3]thiazole-7-amine] | 51 |  |
| CCOCCN(CC1CC1)c1c(OC)nn2c(-c3c(OC)cc(COC)cc3OC)csc12 [Example 45, N-(Cyclopropylmethyl)-3-[2,6-dimethoxy-4-(methoxymethyl)phenyl]-N-(2-ethoxyethyl)-6-methoxypyrazolo[5,1-b][1,3]thiazole-7-amine] | 48 |  |
| CCCN(CC1CC1)c1nc(C)nc(Nc2c(Cl)cc(Cl)cc2Cl)c1Cl [NBI27914] |  | increased levels of Aβ and Aβ plaque deposition induced by stress [6]: inhibits increased levels of Aβ and Aβ plaque deposition induced by stress; limbic system seizure [7]: inhibits limbic system seizure |
| CCCCN(CCOC)c1c(OC)nn2c(-c3c(OC)cc(COC)cc3OC)csc12 [Example 28, N-Butyl-3-[2,6-dimethoxy-4-(methoxymethyl)phenyl]-6-methoxy-N-(2-methoxyethyl)pyrazolo[5,1-b][1,3]thiazole-7-amine] | 40 |  |
| CCN(c1c(OC)nn2c(-c3c(OC)cc(COC)cc3OC)csc12)C1CCC1 [Example 59, N-Cyclobutyl-3-[2,6-dimethoxy-4-(methoxymethyl)phenyl]-N-ethyl-6-methoxypyrazolo[5,1-b][1,3]thiazole-7-amine] | 24 |  |
| COCc1cc(OC)c(-c2csc3c(N(CC4CCC4)C4CCOC4)c(OC)nn23)c(OC)c1 (centres unmarked) [Example 29, N-(Cyclobutylmethyl)-3-[2,6-dimethoxy-4-(methoxymethyl)phenyl]-6-methoxy-N-(tetrahydrofuran-3-yl)pyrazolo[5,1-b][1,3]thiazole-7-amine] | 45 |  |
| CCN(c1c(OC)nn2c(-c3c(OC)cc(COC)cc3OC)csc12)C1CCCC1 [Example 66, N-Cyclopentyl-3-[2,6-dimethoxy-4-(methoxymethyl)phenyl]-N-ethyl-6-methoxypyrazolo[5,1-b][1,3]thiazole-7-amine] | 26 |  |
